This is an account of results in article PMC7665585, “Antidepressive effect of an inward rectifier K^+ channel blocker peptide, tertiapin-RQ” (PLoS ONE, 2020).

For experiment [1], the target named is T1, rat ROMK (Rattus norvegicus, UniProt P35560).
T1 construct: expressed in transfected cells; host or cells: 293T cell line 208-4 (lentiviral transduction, GFP coexpressed)
T1 sequence (P35560 1-391): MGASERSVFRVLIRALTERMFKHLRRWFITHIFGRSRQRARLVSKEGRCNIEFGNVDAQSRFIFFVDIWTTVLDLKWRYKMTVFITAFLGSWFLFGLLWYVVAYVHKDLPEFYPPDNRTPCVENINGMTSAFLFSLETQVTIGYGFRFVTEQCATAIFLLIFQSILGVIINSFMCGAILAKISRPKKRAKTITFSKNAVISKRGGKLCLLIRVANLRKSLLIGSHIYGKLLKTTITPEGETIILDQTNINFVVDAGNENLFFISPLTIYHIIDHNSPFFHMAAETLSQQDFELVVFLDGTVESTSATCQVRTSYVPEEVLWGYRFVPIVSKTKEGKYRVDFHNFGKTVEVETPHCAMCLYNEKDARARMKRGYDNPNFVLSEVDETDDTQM
Kind of experiment: Whole-cell patch-clamp of ROMK currents in 208–4 cells. Conditions: for Activity (ROMK channel blocking activity, percentage of blockade at 1 μM) / inhibition at 1 µM: blockade at 1 μM estimated from fitted Hill curve (four parameters), whole-cell conductance; for Activity (ROMK channel blocking activity, percentage of blockade at 1 μM): n = 3–6; for inhibition at 1 µM: n = 3–6, read-out: Activity (ROMK channel blocking activity, percentage of blockade at 1 μM). The experiment is classed as cell-based. In outline:
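ROMK stably expressed in 208–4 cells; GIRK transiently in 293T, recorded 24 h post-transfection; 25°C, Tyrode (high-K+ 50 mM for GIRK), K-aspartate/KCl pipette with 3 mM MgATP. Steps −150 to 10 mV from −70 mV; currents 60 s after peptide; conductance from I-V slope −140 to −100 mV, Ba2+-resistant current subtracted, normalized to 0 μM TPN.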

Experiment [2] deals with Male ICR mice. Kind of experiment: Forced swim test (FST). The experiment is classed as in vivo, mouse. The note with it: i.c.v., 30 min before test, last 4 min of 6 min. The procedure: We performed mouse behavioral experiments in accordance with our previous study. Male ICR mice (n = 199 in total) aged 5 weeks old were purchased from Shimizu Laboratory Supplies (Kyoto, Japan) and maintained in an animal facility for 7–12 days. They had free access to food and water and were kept in a 12-h light/dark cycle (08:00–20:00). Experiments were carried out between 11:00 and 17:00 in a quiet and air-conditioned experimental room, to which mice were habituated for 30–60 min before each experiment. Animal experiments were performed in accordance with the guidelines of the Physiological Society of Japan and were approved by the Committee for Animal Experiments of Kurashiki University of Science and the Arts. Peptides were dissolved in phosphate-buffered saline (PBS). Peptides were injected intracerebroventricularly (i.c.v.) 30 min before behavioral tests (typically 5 μL/mouse), according to a previous study. The mouse was placed into an anesthetizing jar, to which isoflurane (0.2 mL) was added immediately before. […]
The forced swim test (FST) was performed in accordance with the method reported previously. […] The mouse was allowed to swim for 6 min and its activity was measured. […]

For experiment [3], the system named is Male ICR mice. The experiment in a line: Tail suspension test (TST). The experiment is classed as in vivo, mouse. The procedure:
We performed mouse behavioral experiments in accordance with our previous study. Male ICR mice (n = 199 in total) aged 5 weeks old were purchased from Shimizu Laboratory Supplies (Kyoto, Japan) and maintained in an animal facility for 7–12 days. They had free access to food and water and were kept in a 12-h light/dark cycle (08:00–20:00). Experiments were carried out between 11:00 and 17:00 in a quiet and air-conditioned experimental room, to which mice were habituated for 30–60 min before each experiment. Animal experiments were performed in accordance with the guidelines of the Physiological Society of Japan and were approved by the Committee for Animal Experiments of Kurashiki University of Science and the Arts. Peptides were dissolved in phosphate-buffered saline (PBS). Peptides were injected intracerebroventricularly (i.c.v.) 30 min before behavioral tests (typically 5 μL/mouse), according to a previous study. The mouse was placed into an anesthetizing jar, to which isoflurane (0.2 mL) was added immediately before. After confirming that the mouse was deeply anesthetized we injected the peptide into the right cerebral ventricle over 30 seconds and the injection needle was kept for 1 min after the injection (i.c.v. coordinates: 0 mm caudal to bregma, 1.0 mm lateral to the midline, and 3.5 mm below the skull). The mouse was placed in a cage set on a heating pad (approximately 33°C) for a few minutes until it spontaneously started to move, and then it was put back into its home cage. Each animal was used only once, except for the wheel running test, which was carried out immediately after the elevated plus-maze.
The tail suspension test (TST) was performed in accordance with the method reported previously. The mouse was hung on a hook using adhesive tape placed 2 cm from the extremity of its tail 50 cm above a table. The amount of time spent immobile was recorded for 5 min.

Entries after “also recorded” stand apart in the source; their conditions may differ. Bridge positions count the residues as written; N and C are the ends. Ends that are not written are not given here. Peptide text beside a SMILES is read from it.

Regarding TPN-RQ(C3S) [Peptide 45], the “Activity (ROMK channel blocking activity, percentage of blockade at 1 μM)” value in experiment [1] is given as “- (-, <20%)”. For the same compound, in experiment [1] (whole-cell recordings, listed as TPN-C3S), the “ROMK blocking activity (in words)” value is given as “little blocking activity; also recorded: scarcely blocked the channel”. The “immobile time in FST” value in experiment [2] is listed as “decreased the immobile time insignificantly”. Further, the “immobile time in TST” value in experiment [3] (750 pmole i.c.v., 30 min before test, 5 min recording) was “decreased the immobile time insignificantly”.
`O=[N+]([O-])c1ccc2nc(COCc3nc4ccc([N+](=O)[O-])cc4[nH]3)[nH]c2c1` [VU591]: the “immobile time in TST” value in experiment [3] (i.c.v., 5 μL of 20 mM in dimethyl sulfoxide, n = 4 and 5) is on record as “significantly decreased the immobile time”.
For the compound `CC[C@H](C)[C@@H]1NC(=O)[C@H](CCCNC(=N)N)NC(=O)[C@H](CC(N)=O)NC(=O)[C@@H]2CSSC[C@@H](C(=O)NCC(=O)N[C@@H](CCCCN)C(=O)N[C@@H](CCCCN)C(N)=O)NC(=O)[C@H](CCCCN)NC(=O)[C@H](CCCCN)NC(=O)[C@H](Cc3c[nH]c4ccccc34)NC(=O)[C@H](CSSC[C@H](NC(=O)[C@H](CC(C)C)NC(=O)[C@H](C)N)C(=O)N[C@@H](CC(N)=O)C(=O)N2)NC(=O)[C@H](CCC(N)=O)NC(=O)[C@H](Cc2c[nH]cn2)NC(=O)[C@@H]2CCCN2C(=O)[C@H]([C@@H](C)CC)NC1=O` [Peptide 51, TPN-RQ(Δ8R)] (H-ALCNCNRIIPHQCWKKCGKK-NH2; disulfide 3-13, 5-17), the inhibition at 1 µM in experiment [1] was 40 to 60%.
Turning to `CC[C@H](C)[C@@H]1NC(=O)[C@H](CCCNC(=N)N)NC(=O)[C@H](CCCNC(=N)N)NC(=O)[C@H](CC(N)=O)NC(=O)[C@@H]2CSSC[C@@H](C(=O)NCC(=O)N[C@@H](C)C(=O)N[C@@H](CCCCN)C(N)=O)NC(=O)[C@H](CCCCN)NC(=O)[C@H](CCCCN)NC(=O)[C@H](Cc3c[nH]c4ccccc34)NC(=O)[C@H](CSSC[C@H](NC(=O)[C@H](CC(C)C)NC(=O)[C@H](C)N)C(=O)N[C@@H](CC(N)=O)C(=O)N2)NC(=O)[C@H](CCC(N)=O)NC(=O)[C@H](Cc2c[nH]cn2)NC(=O)[C@@H]2CCCN2C(=O)[C@H]([C@@H](C)CC)NC1=O` [Peptide 68, TPN-RQ(K20A)] (H-ALCNCNRRIIPHQCWKKCGAK-NH2; disulfide 3-14, 5-18), the inhibition at 1 µM in experiment [1] was 40 to 60%.
For the compound “TPN 1–8 (ALCNCNRI) [Peptide 4, Partial TPN peptide (8 amino acids)]”, the “Activity (ROMK channel blocking activity, percentage of blockade at 1 μM)” value in experiment [1] was “- (-, <20%)”.
In the case of “RRIIPAQK-NH2 [Peptide 28, TPN-RQ 7-13(H12A) + K]”, the inhibition at 1 µM in experiment [1] is below 20%.
TPN 2–9 [Peptide 5]: the “Activity (ROMK channel blocking activity, percentage of blockade at 1 μM)” value in experiment [1] is “- (-, <20%)”.
RIIIPHMC-NH2 [Peptide 10, TPN 7–14]: the inhibition at 1 µM in experiment [1] was below 20%.
Still for that read-out and setting: the same measure for “RIIIPHQK-NH2 [Peptide 21, TPN-Q 7–13 + K]”: below 20%.
